Assay results as given in US20220313651A1, “INHIBITORS OF ZIKA VIRUS INFECTION” (priority 2019, published 2022).
pIC50, pKd: −log10 of the molar value.

Legend:
[1] = tested on: ZIKV human strain R116265; test: ZIKV vertical transmission in pregnant Ifnar1-/- mice; format: in vivo; conditions: 20 mg/kg i.p.
Description: Pregnant mice (at embryonic day (E) 12-14) were i.p. treated with ST087010 (20 mg/kg) or DMSO (control) 12 h before and 6, 24 and 48 after infection with ZIKV human strain R116265 (10^3 PFU/mouse). Viral titers were detected, by plaque assay, in sera (FIG. 9A), placenta (FIG. 9B), fetal brain (FIG. 9C), and amniotic fluid (FIG. 9D) at 5 days post infection (dpi). The data are expressed as mean±s.e.m. of mice in each group (n=5), and significant differences among different groups are shown. The detection limit is 25 PFU/ml (for sera and amniotic fluid), or 25 PFU/g (for placenta and fetal brain). Representative images of morphology of mouse uteri and fetuses at 5 dpi are shown. FIG. 9E depicts E17-19 uteri from pregnant mice challenged at E12-14. Fetal morphology (FIG. 9F) and fetal size (FIG. 9G) were detected. ZIKV or caspase-3 signals were measured in placentas by immunofluorescence staining (FIG. 9H). ZIKV and caspase-3 were stained with anti-ZIKV and anti-active caspase-3 antibodies, respectively. Nuclei were stained with DAPI. Representative images of immunofluorescence staining are shown. Magnification, 63×, and scale bar 10 μm.
ST087010 was evaluated for protection against ZIKV-caused fetal damage and death in pregnant Ifnar1^−/− mice. Briefly, groups of 5 pregnant mice (10- to 12-weeks old, E12-14) were injected intraperitoneally with ST087010 (20 mg/kg of body weight), or DMSO (control) 12 h before and 6, 24 and 48 h after i.p. infection with ZIKV (human strain R116265, 10^3 PFU). Five days post-infection, mice were sacrificed; viral titers were determined using plaque assay in sera, placenta, fetal brain and amniotic fluid, and uteri and fetuses were evaluated for morphological and size changes. Placenta was also assessed for apoptosis and viral replication by immunofluorescence staining.
Immunofluorescence staining was carried out to detect ZIKV and caspase-3 signals in ZIKV-infected mouse tissues. […] The slides were analyzed using a confocal microscope (Zeiss LSM 880) and ZEN software, and fluorescent signals were quantified by ImageJ software. […]

[2] = biological target: T1, binding between ZIKV EDIII and EDI/II-specific mAb ZKA78 (Zika virus, UniProt Q32ZE1, D679E/I627V/V603I/V629A); test: ELISA competition, control EDI/II-specific mAb ZKA78; conditions: ZKA78 does not bind EDIII
T1 construct: human Fc (C)
Description: ELISA was also used to determine the ability of ST087010 in inhibition of the binding between ZIKV EDIII and EDIII-specific human mAbs (SMZAb5, ZKA64-LALA, ZV-67, or Z004) or EDI/II-specific human mAb (ZKA78) control. […] The plates were then sequentially incubated with HRP-conjugated anti-human IgG-Fab antibody and TMB substrate, followed by detection of A450 values. Percent inhibition (% inhibition) of compounds was calculated based on the ELISA results, and IC50 was obtained […].

ZIKV NS2B-NS3 protein = biological target: T2, ZIKV NS2B-NS3 protein (Zika virus, UniProt Q32ZE1); test: SPR binding to ZIKV NS2B-NS3 protein; conditions: 1:1 binding model, read-out: Binding affinity (KD) to ZIKV NS2B-NS3 protein
T2 construct: 49-97) and NS2 protein (residues 1-185) through a covalent; made in house; host or cells: E. coli
Description: The interactions between the Z-medicaments and ZIKV full-length E or NS2B-NS3 protease were analyzed at 25° C. using the Biacore T200 system. Briefly, ZIKV E or NS2B-NS3 protein was immobilized on a sensor chip (CM5) using the Amine Coupling Kit. The disclosed Z-medicaments at various concentrations were subsequently injected as analytes, and PBS-P (20 mM phosphate buffer containing 2.7 mM KCl, 137 mM NaCl, and 0.05% surfactant P20, pH 7.4) was used as the running buffer. The data were analyzed using Biacore evaluation software (T200 version 1.0), and the curve was fitted with a 1:1 binding model.
Briefly, ZIKV EDIII protein or NS2B-NS3 protein were immobilized on a sensor chip (CM5) using Amine Coupling Kit. […] Biacore BK evaluation software (version 1.1) was applied to analyze the data, and the curve was fitted with a 1:1 binding model.

[3] = tested on: nine additional ZIKV strains; test: Plaque reduction inhibition assay, nine additional ZIKV strains taken together; format: cell-based; conditions: Zika virus, Vero C1008; range over nine additional strains, Vero E6 cells; read-out: IC50 values against all nine ZIKV strains tested
Description: A plaque reduction inhibition assay was carried out to measure the inhibitory activity of Z-medicaments against infections of ZIKV and DENV. […] The compound-virus mixtures were then transferred to Vero E6 cells (10^5/well) and incubated at 37° C. for 1 h.
The identified Z-medicaments were further studied for their broad-spectrum activity against nine additional ZIKV strains, including those isolated from different hosts, namely humans, mosquitos, and rhesus macaques, at different time periods (1947-2016) in different countries, including Mexico, Panama, Columbia, Honduras, Puerto Rico, Thailand, Nigeria, and Uganda.

`Cc1cc2c(C(C)C)c(O)c(O)c(/C=N/n3c(=O)[nH][nH]c3=O)c2c(O)c1-c1c(C)cc2c(C(C)C)c(O)c(O)c(/C=N/n3c(=O)[nH][nH]c3=O)c2c1O` [ST087010] was tested, and the “ZIKV+ or caspase-3 signals in placental tissues” value ([1]; ZIKV R116265, immunofluorescence, vs DMSO) was “undetectable or diminished”, the “Condition of fetuses and uteri morphology” value ([1]; pregnant mice E12-14, ZIKV R116265 10^3 PFU, 5 dpi) was “all in good condition” and the “Viral titers in sera, placenta, fetal brain and amniotic fluid” value ([1]; pregnant mice E12-14, ZIKV R116265 10^3 PFU, 5 dpi, vs DMSO) was “significantly reduced”. The “Effect on binding of EDI/II-specific mAb ZKA78 (control)” value [2] was “no observable effect” and the pKd (ZIKV NS2B-NS3 protein) was 4.70.

`Cc1cc2c(C(C)C)c(O)c(O)c(C=O)c2c(O)c1-c1c(C)cc2c(C(C)C)c(O)c(O)c(C=O)c2c1O` [Gossypol, gossypol] showed a pIC50 [3] of 5.37 to 6.68.
